Several values for one entry are separate records, joined by “and”; a condition that tells them apart may be missing. Equal values may be shown once. Entries after “also recorded” stand apart in the source; their conditions may differ.
Legend:
HEK293 cells = settings: Barbadin 100 µM; cited from earlier work
MEK1 = experiment: Western blot of ERK1/2 phosphorylation induced by MEK1 (MEK1-WT / MEK1-DD); type: cell-based, human
Experimental: HEK293SL cells (10^5 cells per well) were seeded in a poly-L-lysine-coated six-well plate and transiently transfected with 3 μg Flag-AT1R, HA-B2R or HA-β2AR and/or 500 ng Flag-MEK1-WT, Flag-MEK1-DD, Flag-BRAF-WT, Flag-BRAF-V600E, Flag-K-Ras-WT, Flag-K-Ras-G12V, HA-ARF6-WT, or HA-ARF6-T27N. Gαq/11 KO and βarr1/2 KO cells were seeded onto 100 mm dishes at a density of 10^6 cells per dish. Next day, cells were transfected with 3 μg AT1R alone or along with 500 ng of β-arrestin2 using PEI. After 18 h of transfection, cells were detached and re-seeded onto poly-L-lysine coated 12-well plates (~1.5–2 × 10^5cells/well) for subsequent experiments. Forty-eight hours post transfection, in a 37 °C water bath, cells were serum-starved for 30 min, pretreated with DMSO (0.1%) or compound 21/Rasarfin (50 µM or at indicated concentrations) for 30 min, then stimulated or not with the indicated ligand [AngII (1 µM), BK (1 µM), Iso (10 µM) or EGF (100 ng/ml)] at indicated times. Cells were put on ice, washed with PBS and solubilized in 2x laemmli buffer (250 mM Tris–HCl pH 6.8, 2% SDS (w/v), 10% glycerol (v/v), 0.01% bromophenol blue (w/v) and 5% β-mercaptoethanol (v/v)) by heating at 65 °C for 15 min. Lysates were resolved on 10 or 14% SDS-PAGE, transferred to nitrocellulose membranes and immunoblotted for p-ERK1/2, ERK1/2, p-Akt, Akt, HA, Myc, β-actin or FLAG. ImageLab 5.2 software was used to quantify the digital blots as fold of the phosphorylated protein over total protein, which were then normalized as indicated in the figure legends. Uncropped immunoblots are provided in the Source Data file.

K-Ras = K-Ras (Homo sapiens, UniProt P01116); experiment: Ras BRET sensor in cells overexpressing WT K-Ras and AT1R; type: cell-based; design: expressed in transfected cells; host or cells: HEK293SL
From the text: Because Tyr32 and Tyr40, located on the switch I domain of Ras, are critical for stabilizing Rasarfin binding through interactions with both the chlorine and isopropyl moiety (Fig. 7a, c), we reasoned that substituting them for Ala residues would negatively impact Rasarfin’s inhibitory action on Ras. […] Because we wanted to assess the inhibitory action of Rasarfin over different Ras subtypes, we mutated the two tyrosine residues to an alanine in K-Ras (Y32A, Y40A, and Y32A/Y40A mutants) within the same Rasarfin binding site found in H-Ras (Lys^5-Thr^74). This domain and residues are perfectly conserved among the Ras family members[44],[45]. WT K-Ras and K-Ras mutants were overexpressed along with AT1R in cells and AngII-mediated activation of Ras was assessed using the Ras BRET sensor (Supplementary Fig. 11a).
HEK293SL cells were seeded at a density of 7.5 × 10^5 cells per 100-mm dish and 24 h later, transiently transfected as such. For receptor internalization experiments, cells were transfected with 0.12 μg AT1R-RlucII, B2R-RlucII, or β2AR-RlucII and 0.48 μg of either rGFP-CAAX (to assess removal from the PM) or rGFP-FYVE (to assess accumulation in the endosomes). For β-arrestin recruitment assays, cells were transfected with 0.48 μg of receptor-YFP along with 0.12 μg of β-arrestin-RlucII. […] For kinetics of β-arrestin recruitment or β-arrestin binding to receptor and AP-2 experiments, cells were serum starved for 30 min, pretreated with 21 (50 µM) or Barbadin (100 µM) for 30 min, stimulated with 100 nM AngII or 1 µM BK and BRET signals were monitored at indicated times using a Victor X Light plate reader (PerkinElmer). […] The BRET ratio was determined by calculating the ratio of the light emitted by YFP over the light emitted by the RlucII. […] For the kinetics of GTPase and PI3K/Akt activation, cells were serum starved, pretreated with 21 (50 µM) or Wortmannin (200 nM) for 30 min, stimulated with ligand (100 nM AngII or 100 ng/ml EGF) and BRET signals were monitored at indicated times. […]

Chain of K-Ras (P01116 1-188 isoform P01116-2): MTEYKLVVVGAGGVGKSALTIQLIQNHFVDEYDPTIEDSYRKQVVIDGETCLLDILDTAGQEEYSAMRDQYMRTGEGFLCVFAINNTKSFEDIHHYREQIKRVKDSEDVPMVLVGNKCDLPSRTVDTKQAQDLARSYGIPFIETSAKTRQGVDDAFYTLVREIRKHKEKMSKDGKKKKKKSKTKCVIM

| Compound | toxicity to HEK293 cells (flat, cobblestone appearance retained) (HEK293 cells) | ERK1/2 activation induced by overexpression of MEK1-DD (MEK1; 50 μM) | Predicted (LS) mean diff. DMSO vs. compound (Bonferroni's multiple comparisons test) (MEK1; Flag-MEK1 DD) | ERK1/2 phosphorylation relative to mock (S_Fig.4c) (MEK1; Flag-MEK1 DD, listed as Comp 21) | Predicted (LS) mean diff. DMSO vs. compound (Bonferroni's multiple comparisons test) (MEK1; Flag-MEK1 WT) | ERK1/2 phosphorylation relative to mock (S_Fig.4c) (MEK1; Flag-MEK1 WT, listed as Comp 21) | ERK1/2 phosphorylation relative to mock (S_Fig.4c) (MEK1; mock) | Predicted (LS) mean diff. DMSO vs. compound (Bonferroni's multiple comparisons test) (MEK1; mock) | AngII-mediated activation of WT K-Ras (Ras BRET sensor) (K-Ras; 50 μM) | AngII-promoted BRET (K-Ras; Rasarfin 50 μM, K-Ras WT) | AngII-promoted BRET, Mean Diff. DMSO - Rasarfin (K-Ras; Rasarfin 50 μM, K-Ras WT, Bonferroni's multiple comparisons test) |
| --- | --- | --- | --- | --- | --- | --- | --- | --- | --- | --- | --- |
| Nn1cnc2scc(-c3ccc(Cc4ccccc4)cc3)c2c1=O [Barbadin, reference compound] | non-toxic to cells; also recorded: nontoxic | – | – | – | – | – | – | – | – | – | – |
| CC(C)C(=O)N1CCN(c2ccc(NC(=O)c3cc4ccccc4o3)cc2Cl)CC1 [Compound 21] | – | nor did it block ERK1/2 activation | 0.4193 | 4.057 and 4.133 and 4.072 and 3.9273 | 0.04596 | 1.754 and 1.134 and 1.2368 | 1 | 0 | only WT was significantly inhibited by Rasarfin | 0.0405 and 0.05833 and 0.04947 and 0.058 | 0.04859 |
